We go through two molecules from publication PMC5522529, “Mechanisms of Paradoxical Activation of AMPK by the Kinase Inhibitors SU6656 and Sorafenib” (Cell Chemical Biology, 2017).

For one experiment, the system named is purified rat liver AMPK. In words: Kinase assay of purified rat liver AMPK at 2 mM ATP. It counts as biochemical. As to conditions: ± 1 mM AMP.
The target of another experiment is T1, α2-KD A156T (AT) mutant (Homo sapiens, UniProt P54646, A156T).
T1 construct: amplifying residues 1-310 with 5' BamH1 and 3' Xho1 sites; made in house; host or cells: bacteria
T1 sequence (P54646 1-310 A156T): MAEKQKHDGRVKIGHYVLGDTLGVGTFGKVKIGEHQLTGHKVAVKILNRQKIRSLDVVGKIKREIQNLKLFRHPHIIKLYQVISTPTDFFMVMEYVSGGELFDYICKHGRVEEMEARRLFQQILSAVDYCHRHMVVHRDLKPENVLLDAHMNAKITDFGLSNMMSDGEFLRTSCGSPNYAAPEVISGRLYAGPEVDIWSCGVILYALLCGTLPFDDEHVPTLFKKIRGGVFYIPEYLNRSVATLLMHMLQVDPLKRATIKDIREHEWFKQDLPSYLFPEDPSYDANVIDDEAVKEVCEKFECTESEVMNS
In words: Inhibition of phosphorylated α2 kinase domain, A156T (AT) mutant. In kind it is biochemical.

For another experiment, the target named is T2, α2-KD (Homo sapiens, UniProt P54646).
T2 construct: amplifying residues 1-310 with 5' BamH1 and 3' Xho1 sites; made in house; host or cells: bacteria
T2 sequence (P54646 1-310): as the sequence (P54646 1-310 A156T) above, with T156A counted along it
In words: Activation and phosphorylation of unphosphorylated α2-KD (WT) by LKB1. In kind it is biochemical. An excerpt: (§1) (B) Effect of ATP concentration on kinase activity of α2-KD in the presence of increasing concentrations of SU6656. Results (mean, n = 2) were fitted to the equation Y= (Vmax × X)/(Km × (1 + I/Ki) + X), where Y is the activity, X is the ATP concentration, I is the concentration of SU6656, and Ki is the inhibitory constant for SU6656. […] (D and E) Effect of increasing concentrations of SU6656 on activity (D) and Thr172 phosphorylation (E) induced by LKB1 with unphosphorylated α2-KD (WT/AT mutant). Results in (D) are mean ± SEM (n = 3); and were fitted to same equation as Figure 4C. […] See also Figure S3. (F) Effect of AMP (2 mM) and SU6656 on inactivation of AMPK by PP2Cα in the presence of 5 mM ATP. […] (G) Effects of AMP or SU6656 on activation (top) and Thr172 phosphorylation (bottom) by LKB1 of AMPK-γ1 complexes expressed in HeLa cells. FLAG-tagged AMPK-γ1, either wild-type (WT) or R299G mutant (RG), was expressed in HeLa cells and AMPK complexes precipitated using anti-FLAG antibody. The complexes (which have low basal phosphorylation due to lack of LKB1 in HeLa cells) were incubated with or without a limiting amount of LKB1, AMP (200 μM) or SU6656 (3 μM) for 10 min and AMPK activity determined.
We next used unphosphorylated α2-KD and tested the effect of SU6656 on its activation and phosphorylation by LKB1.

Another experiment addresses T3, AMPK-γ1 complexes (WT) (Homo sapiens, UniProt P54619).
T3 construct: Plasmid encoding full-length human AMPK-γ1; expressed in transfected cells; host or cells: HeLa
In words: Activation by LKB1 of FLAG-AMPK-γ1 (WT) complexes precipitated from HeLa cells. It counts as biochemical. As to conditions: AMP 200 μM or SU6656 3 μM, 10 min.
Excerpt: as §1, with “determined. […]” for “determined.”

Another experiment has as its system ACC. In words: ACC phosphorylation in HEK293 cells (western blot). It counts as cell-based, human. The note with it: 1 hr. The procedure: Figure 1 SU6656 Activates AMPK but Not AMPK-Related Kinases (A) HEK293 cells were incubated with the indicated concentrations of SU6656 or berberine (300 μM) for 1 hr; total AMPK activity was assayed in immunoprecipitates (top; mean ± SEM, n = 4), and phosphorylation of AMPK (Thr172), ACC (Ser80), and Raptor (Ser792) analyzed by western blotting (bottom; n = 2). (B) HEK293 cells were incubated with 100 μM SU6656 (1 hr), AMPK complexes containing α1, α2, β1, and β2 immunoprecipitated using isoform-specific antibodies, and AMPK activity measured (mean ± SEM, n = 4). (C) HeLa cells stably expressing LKB1 ([Fogarty et al., 2010]) were incubated with 100 μM SU6656 for 1 hr, AMPK or individual ARKs immunoprecipitated, and kinase assays carried out (antibodies that distinguish MARK2/MARK3 were not available, so they were assayed together). Results are means ± SEM (n = 2). In all panels, asterisks indicate significant differences from controls without SU6656. *p < 0.05, **p < 0.01, ****p < 0.0001.
(B) WT or RG cells were treated as in (A) and nucleotides extracted for analysis (mean ± SD, n = 3). […] (E) (See also Figure S2) Time courses of cellular oxygen uptake before and after addition of the indicated concentrations of sorafenib (SO, μM), SU6656 (100 μM) or phenformin (PHEN, 10 mM) (mean ± SEM, n = 4). (F) Effect of various concentrations of sorafenib or phenformin (10 mM) on activation (top, mean ± SEM, n = 3) or phosphorylation (bottom) of AMPK in cells expressing wild-type AMPK-γ2 (WT) or the R531G mutant AMPK-γ2 (RG). In all panels, asterisks show significant differences from DMSO controls (ns, not significant). […]
Cells were incubated for 60 min and AMPK activity measured; results in the top panel are means ± SEM (n = 8), with significant differences from the DMSO control indicated (ns, not significant). […]
SDS-PAGE was performed using precast Bis-Tris 4–12% gradient polyacrylamide gels in the MOPS buffer system (ThermoFisher Scientific). […] Protein concentrations were determined by Coomassie Blue binding with bovine serum albumin as standard ([Bradford, 1976]). […]

The subject of a further experiment is mice. More on the design: method as in Yamada et al., 2010. The note with it: ref Yamada et al., 2010; cited from earlier work.
A further experiment relates to AMPK. Set-up: method as in Bain et al., 2007. As to conditions: ref Bain et al., 2007; cited from earlier work.
Experiment [1] has as its target α2 kinase domain (α2-KD, residues 1–310) (Homo sapiens, UniProt P54646). The experiment is described as follows: biochemical.

Sequence of α2 kinase domain (α2-KD, residues 1–310) (P54646 1-310): as the sequence (P54646 1-310 A156T) above, with T156A counted along it
T3 sequence (P54619 whole entry, one chain of several): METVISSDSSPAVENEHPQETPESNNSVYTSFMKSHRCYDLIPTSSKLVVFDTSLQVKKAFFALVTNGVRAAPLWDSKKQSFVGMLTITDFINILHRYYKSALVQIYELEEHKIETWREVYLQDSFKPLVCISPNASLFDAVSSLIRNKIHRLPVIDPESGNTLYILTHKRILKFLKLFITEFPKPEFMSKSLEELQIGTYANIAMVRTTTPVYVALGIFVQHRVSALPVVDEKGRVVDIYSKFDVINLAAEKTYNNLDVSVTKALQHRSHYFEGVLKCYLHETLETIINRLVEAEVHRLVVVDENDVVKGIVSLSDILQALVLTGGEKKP

Take `CN(C)S(=O)(=O)c1ccc2c(c1)/C(=C/c1cc3c([nH]1)CCCC3)C(=O)N2` [SU6656]: the “concentrations inhibiting both basal and AMP-stimulated activity” value in the experiment with purified rat liver AMPK is “above 1 μM”. In addition, the IC50 at α2-KD A156T (AT) mutant (AT mutant α2-KD phosphorylated using CaMKK2, read-out: IC50 for inhibition of catalytic activity) is 1700 ± 300 nM. The “fold less potent inhibition with AT mutant than WT” value on α2-KD A156T (AT) mutant (AT versus WT α2-KD) is recorded as about 10 fold. For the same molecule, the “activation of α2-KD by LKB1” value at α2-KD (SU6656 up to 10 μM) is on record as 1.9 ± 0.2 fold. Besides, the Kd at α2-KD (read-out: half-maximal effect on α2-KD activation by LKB1) was found to be 200 ± 20 nM. The “activation and Thr172 phosphorylation by LKB1” value on AMPK-γ1 complexes (WT) is “promoted activation and increased Thr172 phosphorylation”. Moreover, in the experiment with ACC, the ACC phosphorylation result is listed as “increased phosphorylation”. The fatty acid oxidation result in the experiment on mice is “increased fatty acid oxidation”. Also, in the experiment on AMPK, the “inhibition of AMPK relative to Src” value is given as “inhibits AMPK as effectively as Src”. In experiment [1], this molecule registered an IC50 of 220 ± 20 nM and a Ki of 170 nM.
Regarding `CNC(=O)c1cc(Oc2ccc(NC(=O)Nc3ccc(Cl)c(C(F)(F)F)c3)cc2)ccn1` [sorafenib], the ACC phosphorylation result in the experiment with ACC was “promoted Thr172 and ACC phosphorylation”.
